Species on record: Rattus norvegicus
Experiment: DrugMatrix - Regimen: Daily Repeat
Assay type: toxicity, organism-based, Sprague-Dawley
Design: regimen Daily Repeat, gender Male, age 6-8 weeks
Conditions: in vivo, sc, route subcutaneous, […]; for ABSOLUTE BASOPHIL / ABSOLUTE EOSINOPHIL / ABSOLUTE LYMPHOCYTE / ABSOLUTE MONOCYTE / BASOPHIL / EOSINOPHIL / ERYTHROCYTE COUNT / HEMATOCRIT / HEMOGLOBIN / LEUKOCYTE COUNT / LYMPHOCYTE / MEAN CORPUSCULAR HEMOGLOBIN / MEAN CORPUSCULAR HEMOGLOBIN CONCENTRATION / MEAN CORPUSCULAR VOLUME / MONOCYTE / NEUTROPHIL / NUCLEATED RED BLOOD CELLS / PLATELET COUNT: tissue Blood; for ALANINE AMINOTRANSFERASE / ALBUMIN / ASPARTATE AMINOTRANSFERASE / BLOOD UREA NITROGEN / CARBON DIOXIDE / CHLORIDE / CHOLESTEROL / CREATINE PHOSPHOKINASE / CREATININE / LACTATE DEHYDROGENASE / LIPASE / PHOSPHORUS / POTASSIUM / SODIUM / TOTAL BILIRUBIN / TOTAL PROTEIN / URIC ACID / GLUCOSE: tissue Plasma
[1] = 0 mg/kg, 72 h, dose level Control, time 3 day
[2] = 0 mg/kg, 120 h, dose level Control, time 5 day
[3] = 64 mg/kg, 72 h, dose level Low, time 3 day

## Nc1ccc(S(N)(=O)=O)cc1 [SULFANILAMIDE]
[1]
  ABSOLUTE BASOPHIL: 0 CELLS/uL
  ABSOLUTE EOSINOPHIL: 92.33 CELLS/uL
  ABSOLUTE LYMPHOCYTE: 12247.5 CELLS/uL
  ABSOLUTE MONOCYTE: 389.67 CELLS/uL
  BASOPHIL: 0%
  EOSINOPHIL: 0.67%
  ERYTHROCYTE COUNT: 5.45 x10E6/uL
  HEMATOCRIT: 34.85%
  HEMOGLOBIN: 12.97 G/DL
  LEUKOCYTE COUNT: 14.05 x10E3/uL
  LYMPHOCYTE: 87.33%
  MEAN CORPUSCULAR HEMOGLOBIN: 23.78 pg
  MEAN CORPUSCULAR HEMOGLOBIN CONCENTRATION: 37.22 G/DL
  MEAN CORPUSCULAR VOLUME: 63.93 fL
  MONOCYTE: 2.67%
  NEUTROPHIL: 9.33%
  NUCLEATED RED BLOOD CELLS: 0 /100WBC
  PLATELET COUNT: 1174 x10E3/uL
  ALANINE AMINOTRANSFERASE: 48.83 u/L
  ALBUMIN: 4.23 G/DL
  ASPARTATE AMINOTRANSFERASE: 90 u/L
  BLOOD UREA NITROGEN: 15.33 mg/dL
  CARBON DIOXIDE: 23 mmol/L
  CHLORIDE: 103.5 MEQ/L
  CHOLESTEROL: 70.5 mg/dL
  CREATINE PHOSPHOKINASE: 651.83 u/L
  CREATININE: 0.22 mg/dL
  LACTATE DEHYDROGENASE: 165 u/L
  LIPASE: 9.33 u/L
  PHOSPHORUS: 12.03 mg/dL
  POTASSIUM: 6.17 MEQ/L
  SODIUM: 142.62 MEQ/L
  TOTAL BILIRUBIN: 0.2 mg/dL
  TOTAL PROTEIN: 5.73 G/DL
  URIC ACID: 1.77 mg/dL
[2]
  ABSOLUTE BASOPHIL: 0 CELLS/uL
  ABSOLUTE EOSINOPHIL: 0 CELLS/uL
  ABSOLUTE LYMPHOCYTE: 12736.67 CELLS/uL
  ABSOLUTE MONOCYTE: 253.5 CELLS/uL
  BASOPHIL: 0%
  EOSINOPHIL: 0%
  ERYTHROCYTE COUNT: 5.72 x10E6/uL
  HEMATOCRIT: 36.05%
  HEMOGLOBIN: 13.62 G/DL
  LEUKOCYTE COUNT: 14.18 x10E3/uL
  LYMPHOCYTE: 89.33%
  MEAN CORPUSCULAR HEMOGLOBIN: 23.83 pg
  MEAN CORPUSCULAR HEMOGLOBIN CONCENTRATION: 37.8 G/DL
  MEAN CORPUSCULAR VOLUME: 63.05 fL
  MONOCYTE: 1.83%
  NEUTROPHIL: 8.83%
  NUCLEATED RED BLOOD CELLS: 0 /100WBC
  PLATELET COUNT: 1322.17 x10E3/uL
  ALANINE AMINOTRANSFERASE: 48.83 u/L
  ALBUMIN: 4.27 G/DL
  ASPARTATE AMINOTRANSFERASE: 75.83 u/L
  BLOOD UREA NITROGEN: 15.5 mg/dL
  CARBON DIOXIDE: 30.5 mmol/L
  CHLORIDE: 102.33 MEQ/L
  CHOLESTEROL: 76.17 mg/dL
  CREATINE PHOSPHOKINASE: 205.5 u/L
  CREATININE: 0.2 mg/dL
  GLUCOSE: 149.67 mg/dL
  LACTATE DEHYDROGENASE: 124.5 u/L
  LIPASE: 10 u/L
  PHOSPHORUS: 10.93 mg/dL
  POTASSIUM: 6.59 MEQ/L
  SODIUM: 143.1 MEQ/L
  TOTAL BILIRUBIN: 0.2 mg/dL
  TOTAL PROTEIN: 6.05 G/DL
  URIC ACID: 1.45 mg/dL
[3]
  ABSOLUTE BASOPHIL: 0 CELLS/uL
  ABSOLUTE EOSINOPHIL: 0 CELLS/uL
  ABSOLUTE LYMPHOCYTE: 13215.67 CELLS/uL
  ABSOLUTE MONOCYTE: 191 CELLS/uL
  BASOPHIL: 0%
  EOSINOPHIL: 0%
  ERYTHROCYTE COUNT: 5.71 x10E6/uL
  HEMATOCRIT: 36.53%
  HEMOGLOBIN: 13.5 G/DL
  LEUKOCYTE COUNT: 14.17 x10E3/uL
  LYMPHOCYTE: 93.33%
  MEAN CORPUSCULAR HEMOGLOBIN: 23.67 pg
  MEAN CORPUSCULAR HEMOGLOBIN CONCENTRATION: 36.97 G/DL
  MEAN CORPUSCULAR VOLUME: 64.03 fL
  MONOCYTE: 1.33%
  NEUTROPHIL: 5.33%
  NUCLEATED RED BLOOD CELLS: 0 /100WBC
  PLATELET COUNT: 1225.33 x10E3/uL
  ALANINE AMINOTRANSFERASE: 53 u/L
  ALBUMIN: 4.13 G/DL
  ASPARTATE AMINOTRANSFERASE: 87 u/L
  BLOOD UREA NITROGEN: 16.33 mg/dL
  CARBON DIOXIDE: 25.33 mmol/L
  CHLORIDE: 103 MEQ/L
  CHOLESTEROL: 70.33 mg/dL
  CREATINE PHOSPHOKINASE: 269 u/L
  CREATININE: 0.24 mg/dL
  GLUCOSE: 150.67 mg/dL
  LACTATE DEHYDROGENASE: 408.33 u/L
  LIPASE: 10 u/L
  PHOSPHORUS: 13.03 mg/dL
  POTASSIUM: 6.94 MEQ/L
  SODIUM: 144.53 MEQ/L
  TOTAL BILIRUBIN: 0.27 mg/dL
  TOTAL PROTEIN: 5.7 G/DL
  URIC ACID: 1.7 mg/dL
